Measured values as given in paper PMC8657982, “Overlap and Specificity in the Substrate Spectra of Human Monoamine Transporters and Organic Cation Transporters 1, 2, and 3” (International Journal of Molecular Sciences, 2021).

Columns and labels:
SERT = SERT (Homo sapiens, UniProt P31645); experiment: Uptake into HEK293 cells overexpressing SERT (uptake ratio and concentration-dependent uptake); conditions: for Clint ± SEM: SERT, intrinsic clearance, quotient of vmax and Km;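 as to Uptake Ratio by Transporter SERT: ratio of uptake in SERT cells over empty-vector control cells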;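 as to all read-outs here: incubation at 37 °C, intracellular compound quantified by HPLC-MS/MS after cell lysis, uptake normalized to total protein measured by bicinchoninic acid assay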
SERT, sequence (P31645 whole entry): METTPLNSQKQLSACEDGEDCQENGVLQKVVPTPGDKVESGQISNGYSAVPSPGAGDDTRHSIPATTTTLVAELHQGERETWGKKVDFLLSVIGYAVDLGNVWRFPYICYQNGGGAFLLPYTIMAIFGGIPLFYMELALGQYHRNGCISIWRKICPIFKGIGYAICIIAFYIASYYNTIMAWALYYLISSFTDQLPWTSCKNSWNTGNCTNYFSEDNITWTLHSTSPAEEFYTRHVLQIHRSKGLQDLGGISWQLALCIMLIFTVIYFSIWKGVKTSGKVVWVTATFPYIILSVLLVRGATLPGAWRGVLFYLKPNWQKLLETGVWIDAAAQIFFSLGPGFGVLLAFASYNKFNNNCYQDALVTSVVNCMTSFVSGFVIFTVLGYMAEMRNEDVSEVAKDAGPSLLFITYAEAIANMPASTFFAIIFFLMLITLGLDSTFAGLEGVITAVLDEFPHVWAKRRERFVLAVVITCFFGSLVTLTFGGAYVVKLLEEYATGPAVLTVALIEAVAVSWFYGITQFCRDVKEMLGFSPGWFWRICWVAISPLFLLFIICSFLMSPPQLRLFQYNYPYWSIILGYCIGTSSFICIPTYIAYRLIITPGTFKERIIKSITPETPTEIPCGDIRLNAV

NET = NET (Homo sapiens, UniProt P23975); experiment: Uptake into HEK293 cells overexpressing NET (uptake ratio and concentration-dependent uptake); conditions: intrinsic clearance, quotient of vmax and Km
NET, sequence (P23975 whole entry): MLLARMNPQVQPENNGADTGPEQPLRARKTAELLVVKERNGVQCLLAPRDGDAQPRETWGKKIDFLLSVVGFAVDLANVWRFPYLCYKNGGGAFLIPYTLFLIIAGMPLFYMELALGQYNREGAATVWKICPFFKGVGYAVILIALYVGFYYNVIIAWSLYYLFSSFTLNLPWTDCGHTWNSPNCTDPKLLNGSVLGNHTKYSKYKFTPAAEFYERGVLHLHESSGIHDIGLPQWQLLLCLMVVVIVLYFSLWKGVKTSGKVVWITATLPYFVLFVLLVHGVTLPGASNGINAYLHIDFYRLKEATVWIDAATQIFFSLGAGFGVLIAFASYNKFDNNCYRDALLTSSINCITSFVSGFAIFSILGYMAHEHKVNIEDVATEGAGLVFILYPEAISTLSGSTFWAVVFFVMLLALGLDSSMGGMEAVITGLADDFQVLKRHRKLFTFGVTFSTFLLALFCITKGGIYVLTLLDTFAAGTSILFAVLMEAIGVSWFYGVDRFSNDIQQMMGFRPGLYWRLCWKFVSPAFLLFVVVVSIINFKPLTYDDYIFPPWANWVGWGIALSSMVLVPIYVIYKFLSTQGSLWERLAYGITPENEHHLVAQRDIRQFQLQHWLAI

DAT = DAT (Homo sapiens, UniProt Q01959); experiment: Uptake into HEK293 cells overexpressing DAT (uptake ratio and concentration-dependent uptake); conditions: intrinsic clearance, quotient of vmax and Km
DAT, sequence (Q01959 whole entry): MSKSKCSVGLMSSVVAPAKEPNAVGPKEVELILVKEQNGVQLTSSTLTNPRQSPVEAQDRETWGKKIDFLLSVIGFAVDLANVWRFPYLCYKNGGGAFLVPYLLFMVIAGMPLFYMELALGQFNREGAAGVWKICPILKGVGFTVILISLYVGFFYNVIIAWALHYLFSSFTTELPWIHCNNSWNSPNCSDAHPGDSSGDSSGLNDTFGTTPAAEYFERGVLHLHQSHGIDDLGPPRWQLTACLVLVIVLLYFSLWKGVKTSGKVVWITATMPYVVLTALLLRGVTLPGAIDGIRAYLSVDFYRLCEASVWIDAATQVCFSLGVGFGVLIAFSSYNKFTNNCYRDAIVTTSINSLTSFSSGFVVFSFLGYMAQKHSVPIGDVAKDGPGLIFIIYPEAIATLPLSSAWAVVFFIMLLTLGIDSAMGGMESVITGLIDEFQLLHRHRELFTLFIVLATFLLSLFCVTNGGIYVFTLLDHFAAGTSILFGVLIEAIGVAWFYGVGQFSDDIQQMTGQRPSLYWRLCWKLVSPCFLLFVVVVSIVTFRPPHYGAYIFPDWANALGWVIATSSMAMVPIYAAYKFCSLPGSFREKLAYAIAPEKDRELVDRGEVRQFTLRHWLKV

OCT1 = molecular target: T1, OCT1 (Homo sapiens, UniProt O15245); experiment: Uptake into HEK293 cells overexpressing OCT1 (uptake ratio and concentration-dependent uptake); conditions: intrinsic clearance, quotient of vmax and Km
T1 sequence (O15245 1-554): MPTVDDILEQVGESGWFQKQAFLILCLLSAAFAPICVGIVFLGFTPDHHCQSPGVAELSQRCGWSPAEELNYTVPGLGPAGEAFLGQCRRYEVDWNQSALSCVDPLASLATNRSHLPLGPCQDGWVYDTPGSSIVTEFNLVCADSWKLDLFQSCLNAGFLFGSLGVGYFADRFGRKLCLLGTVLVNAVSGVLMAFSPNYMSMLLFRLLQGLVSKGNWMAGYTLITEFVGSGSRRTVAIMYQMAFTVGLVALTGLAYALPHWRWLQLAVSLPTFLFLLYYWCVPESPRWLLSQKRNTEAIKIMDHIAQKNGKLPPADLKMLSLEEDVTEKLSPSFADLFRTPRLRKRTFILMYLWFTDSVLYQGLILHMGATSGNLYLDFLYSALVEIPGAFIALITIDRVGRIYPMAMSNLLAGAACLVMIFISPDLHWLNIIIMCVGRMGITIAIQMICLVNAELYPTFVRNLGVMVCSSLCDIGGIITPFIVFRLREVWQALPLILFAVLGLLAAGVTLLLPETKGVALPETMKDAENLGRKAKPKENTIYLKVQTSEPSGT

OCT2 = molecular target: T2, OCT2 (Homo sapiens, UniProt O15244); experiment: Uptake into HEK293 cells overexpressing OCT2 (uptake ratio and concentration-dependent uptake); conditions: for Vmax ± SEM: concentration-dependent net uptake, Michaelis–Menten; for Clint ± SEM: intrinsic clearance, quotient of vmax and Km
T2 sequence (O15244 1-555): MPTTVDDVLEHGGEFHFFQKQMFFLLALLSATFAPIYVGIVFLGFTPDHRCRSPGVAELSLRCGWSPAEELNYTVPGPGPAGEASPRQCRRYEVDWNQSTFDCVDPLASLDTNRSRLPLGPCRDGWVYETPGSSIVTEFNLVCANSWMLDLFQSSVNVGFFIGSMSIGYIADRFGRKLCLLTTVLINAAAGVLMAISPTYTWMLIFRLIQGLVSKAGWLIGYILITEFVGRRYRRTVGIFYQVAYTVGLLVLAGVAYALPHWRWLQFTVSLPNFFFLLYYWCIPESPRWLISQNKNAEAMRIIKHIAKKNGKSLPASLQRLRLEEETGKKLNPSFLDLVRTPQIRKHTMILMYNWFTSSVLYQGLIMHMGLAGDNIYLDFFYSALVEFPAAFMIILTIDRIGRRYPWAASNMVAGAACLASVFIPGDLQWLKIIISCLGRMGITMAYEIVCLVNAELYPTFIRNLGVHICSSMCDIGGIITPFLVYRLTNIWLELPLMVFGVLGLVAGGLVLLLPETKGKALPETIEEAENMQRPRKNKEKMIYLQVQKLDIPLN

OCT3 = molecular target: T3, OCT3 (Homo sapiens, UniProt O75751); experiment: Uptake into HEK293 cells overexpressing OCT3 (uptake ratio and concentration-dependent uptake); conditions: intrinsic clearance, quotient of vmax and Km
T3 sequence (O75751 1-556): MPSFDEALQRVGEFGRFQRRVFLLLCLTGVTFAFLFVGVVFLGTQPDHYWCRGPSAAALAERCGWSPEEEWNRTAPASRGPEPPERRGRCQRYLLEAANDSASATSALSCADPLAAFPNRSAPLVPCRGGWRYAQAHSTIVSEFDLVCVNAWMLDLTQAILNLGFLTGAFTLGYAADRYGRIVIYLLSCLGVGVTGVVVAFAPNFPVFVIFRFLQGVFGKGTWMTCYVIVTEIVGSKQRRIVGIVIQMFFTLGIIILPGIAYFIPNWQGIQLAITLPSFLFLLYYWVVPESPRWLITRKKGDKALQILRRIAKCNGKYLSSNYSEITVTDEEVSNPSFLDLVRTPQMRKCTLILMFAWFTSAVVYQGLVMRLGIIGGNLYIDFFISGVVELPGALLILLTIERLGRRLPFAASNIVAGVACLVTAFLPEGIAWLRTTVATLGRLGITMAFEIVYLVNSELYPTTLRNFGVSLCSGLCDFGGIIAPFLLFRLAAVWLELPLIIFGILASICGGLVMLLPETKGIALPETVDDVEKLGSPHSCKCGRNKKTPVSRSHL

[1] = substrate: CNCCc1c[nH]c2ccc(O)cc12; experiment: cells, lysate or membranes; conditions: concentration-dependent net uptake, Michaelis–Menten, pH 7.4
[2] = substrate: N=C(N)NCc1cccc(I)c1; experiment: cells, lysate or membranes; conditions: concentration-dependent net uptake, Michaelis–Menten, pH 7.4
[3] = substrate: NCCc1c[nH]c2ccc(O)cc12; experiment: cells, lysate or membranes; conditions: concentration-dependent net uptake, Michaelis–Menten, pH 7.4

COc1cc(CCN)ccc1O [3-Methoxy-p-tyramine]
Uptake Ratio by Transporter SERT (SERT): 4.45

NCc1ccc(O)cc1 [4-Hydroxybenzylamine]
Uptake Ratio by Transporter SERT (SERT): 1.55

COc1ccc(CCN)cc1O [4-Methoxy-m-tyramine]
Uptake Ratio by Transporter SERT (SERT): 3.86

COc1ccc2[nH]cc(CCN)c2c1 [5-Methoxy-Tryptamine]
Uptake Ratio by Transporter SERT (SERT): 3.46

NC[C@H](O)c1ccc(O)c(O)c1 [(-)-Norepinephrine]
Clint ± SEM (NET): 47.8 mL × g Protein^−1 × min^−1

CN[C@@H]1CCc2[nH]c3ccc(C(N)=O)cc3c2C1 [(R)-Frovatriptan, reference compound]
Clint ± SEM (SERT): 38.48 mL × g Protein^−1 × min^−1

NCC(O)c1ccccc1 (stereo not shown) [Bisnorephedrine]
Uptake Ratio by Transporter SERT (SERT): 1.45

CNCCc1ccc(O)c(O)c1 [Deoxyepinephrine]
Uptake Ratio by Transporter SERT (SERT): 13.89

NCCc1ccc(O)c(O)c1 [Dopamine]
Clint ± SEM (DAT): 78.9 mL × g Protein^−1 × min^−1

CNCC(O)c1ccccc1 (stereo not shown) [Halostachine]
Uptake Ratio by Transporter SERT (SERT): 2.26

CN(C)CCc1ccc(O)cc1 [Hordenine]
Uptake Ratio by Transporter SERT (SERT): 2.02

C[n+]1ccc(-c2ccccc2)cc1 [MPP+, reference compound]
Uptake Ratio by Transporter SERT (SERT): 50.42

CNCC(O)c1ccc(O)c(OC)c1 (stereo not shown) [Metanephrine]
Uptake Ratio by Transporter SERT (SERT): 1.97

CNCCc1ccc(O)cc1 [N-Methyl p-tyramine]
Uptake Ratio by Transporter SERT (SERT): 2.46

CNCCc1c[nH]c2ccc(O)cc12 [N-Methyl serotonin]
Clint ± SEM (OCT1): 80.52 mL × g Protein^−1 × min^−1 | Vmax ± SEM (OCT2): 11,918 pmol × mg Protein^−1 × min^−1 | Clint ± SEM (OCT2): 46.93 mL × g Protein^−1 × min^−1 | Clint ± SEM (OCT3): 9.68 mL × g Protein^−1 × min^−1 | Clint ± SEM (SERT): 337.7 mL × g Protein^−1 × min^−1

CNCCc1ccccc1 [N-Methylphenylethylamine]
Uptake Ratio by Transporter SERT (SERT): 2.29

COc1cc(C(O)CN)ccc1O (stereo not shown) [Normetanephrine]
Uptake Ratio by Transporter SERT (SERT): 1.91

NCCc1c[nH]c2ccc(O)cc12 [Serotonin]
Clint ± SEM (NET): 18.83 mL × g Protein^−1 × min^−1 | Clint ± SEM (DAT): 77.39 mL × g Protein^−1 × min^−1 | Clint ± SEM (OCT1): 21.91 mL × g Protein^−1 × min^−1 | Vmax ± SEM (OCT2): 31,565 pmol × mg Protein^−1 × min^−1 | Clint ± SEM (OCT2): 46.04 mL × g Protein^−1 × min^−1 | Clint ± SEM (OCT3): 1.17 mL × g Protein^−1 × min^−1 | Clint ± SEM (SERT): 256.9 mL × g Protein^−1 × min^−1

CNCC(O)c1ccc(O)cc1 (stereo not shown) [Synephrine]
Uptake Ratio by Transporter SERT (SERT): 1.53

NC1CC1c1ccccc1 (stereo not shown) [Tranylcypromin, reference compound]
Uptake Ratio by Transporter SERT (SERT): 2.37

NCCc1c[nH]c2ccccc12 [Tryptamine]
Uptake Ratio by Transporter SERT (SERT): 4.88 | Clint ± SEM (SERT): 22.0 mL × g Protein^−1 × min^−1

NCCc1cccc(O)c1 [m-Tyramine]
Uptake Ratio by Transporter SERT (SERT): 3.08

B1: OCT2 (Homo sapiens) (protein)
chain: MPTTVDDVLEHGGEFHFFQKQMFFLLALLSATFAPIYVGIVFLGFTPDHRCRSPGVAELSLRCGWSPAEELNYTVPGPGPAGEASPRQCRRYEVDWNQSTFDCVDPLASLDTNRSRLPLGPCRDGWVYETPGSSIVTEFNLVCANSWMLDLFQSSVNVGFFIGSMSIGYIADRFGRKLCLLTTVLINAAAGVLMAISPTYTWMLIFRLIQGLVSKAGWLIGYILITEFVGRRYRRTVGIFYQVAYTVGLLVLAGVAYALPHWRWLQFTVSLPNFFFLLYYWCIPESPRWLISQNKNAEAMRIIKHIAKKNGKSLPASLQRLRLEEETGKKLNPSFLDLVRTPQIRKHTMILMYNWFTSSVLYQGLIMHMGLAGDNIYLDFFYSALVEFPAAFMIILTIDRIGRRYPWAASNMVAGAACLASVFIPGDLQWLKIIISCLGRMGITMAYEIVCLVNAELYPTFIRNLGVHICSSMCDIGGIITPFLVYRLTNIWLELPLMVFGVLGLVAGGLVLLLPETKGKALPETIEEAENMQRPRKNKEKMIYLQVQKLDIPLN
Km ([1]; other: OCT2): 253.9 ± 54.98 µM | Vmax ([1]; other: OCT2): 11918 pmol × mg Protein^−1 × min^−1 | Km ([2]; other: OCT2): 13.3 ± 2.4 µM | Vmax ([2]; other: OCT2): 0.00204 µmol/min/mg | Vmax/Km ([2]; other: OCT2): 152 µL/min/mg | Km ([3]; other: OCT2): 685.6 µM | Vmax ([3]; other: OCT2): 31565 pmol × mg Protein^−1 × min^−1

B2: OCT3 (Homo sapiens) (protein)
chain: MPSFDEALQRVGEFGRFQRRVFLLLCLTGVTFAFLFVGVVFLGTQPDHYWCRGPSAAALAERCGWSPEEEWNRTAPASRGPEPPERRGRCQRYLLEAANDSASATSALSCADPLAAFPNRSAPLVPCRGGWRYAQAHSTIVSEFDLVCVNAWMLDLTQAILNLGFLTGAFTLGYAADRYGRIVIYLLSCLGVGVTGVVVAFAPNFPVFVIFRFLQGVFGKGTWMTCYVIVTEIVGSKQRRIVGIVIQMFFTLGIIILPGIAYFIPNWQGIQLAITLPSFLFLLYYWVVPESPRWLITRKKGDKALQILRRIAKCNGKYLSSNYSEITVTDEEVSNPSFLDLVRTPQMRKCTLILMFAWFTSAVVYQGLVMRLGIIGGNLYIDFFISGVVELPGALLILLTIERLGRRLPFAASNIVAGVACLVTAFLPEGIAWLRTTVATLGRLGITMAFEIVYLVNSELYPTTLRNFGVSLCSGLCDFGGIIAPFLLFRLAAVWLELPLIIFGILASICGGLVMLLPETKGIALPETVDDVEKLGSPHSCKCGRNKKTPVSRSHL
Km ([1]; other: OCT3): 18.78 ± 12.42 µM | Vmax ([1]; other: OCT3): 181.7 pmol × mg Protein^−1 × min^−1 | Km ([2]; other: OCT3): 10.5 ± 1.9 µM | Vmax ([2]; other: OCT3): 0.00169 µmol/min/mg | Vmax/Km ([2]; other: OCT3): 161 µL/min/mg

B3: OCT1 (Homo sapiens) (protein)
chain: MPTVDDILEQVGESGWFQKQAFLILCLLSAAFAPICVGIVFLGFTPDHHCQSPGVAELSQRCGWSPAEELNYTVPGLGPAGEAFLGQCRRYEVDWNQSALSCVDPLASLATNRSHLPLGPCQDGWVYDTPGSSIVTEFNLVCADSWKLDLFQSCLNAGFLFGSLGVGYFADRFGRKLCLLGTVLVNAVSGVLMAFSPNYMSMLLFRLLQGLVSKGNWMAGYTLITEFVGSGSRRTVAIMYQMAFTVGLVALTGLAYALPHWRWLQLAVSLPTFLFLLYYWCVPESPRWLLSQKRNTEAIKIMDHIAQKNGKLPPADLKMLSLEEDVTEKLSPSFADLFRTPRLRKRTFILMYLWFTDSVLYQGLILHMGATSGNLYLDFLYSALVEIPGAFIALITIDRVGRIYPMAMSNLLAGAACLVMIFISPDLHWLNIIIMCVGRMGITIAIQMICLVNAELYPTFVRNLGVMVCSSLCDIGGIITPFIVFRLREVWQALPLILFAVLGLLAAGVTLLLPETKGVALPETMKDAENLGRKAKPKENTIYLKVQTSEPSGT
Km ([1]; other: OCT1): 27.78 ± 9.19 µM | Vmax ([1]; other: OCT1): 2237 pmol × mg Protein^−1 × min^−1 | Km ([2]; other: OCT1): 16.6 ± 3.7 µM | Vmax ([2]; other: OCT1): 0.0023 µmol/min/mg | Vmax/Km ([2]; other: OCT1): 138 µL/min/mg | Km ([3]; other: OCT1): 235.6 µM | Vmax ([3]; other: OCT1): 5161 pmol × mg Protein^−1 × min^−1
